Measured values: patent publication US20210371461A1, “Novel chemiluminescent substrates for Factor Xa” (Enzyre B.V., priority 2018, published 2021)
Where a SMILES comes first, the peptide text is derived from it. The star is where a group is joined. X1 = O=C(O)[C@H]1CSC(c2nc3ccc(N*)cc3s2)=N1; Decanoyl(3,6,9-trioxa) = COCCOCCOCC(=O)*

Key:
Assay type in all cases: biochemical
FXa [1] = target: T1, FXa (Homo sapiens, UniProt P00742); assay: Cross reactivity assay, FXa; conditions: compared with thrombin, plasmin, tPA, FXlla
T1 construct: purchased Coachrom
T1 sequence (P00742 235-488 limits assumed): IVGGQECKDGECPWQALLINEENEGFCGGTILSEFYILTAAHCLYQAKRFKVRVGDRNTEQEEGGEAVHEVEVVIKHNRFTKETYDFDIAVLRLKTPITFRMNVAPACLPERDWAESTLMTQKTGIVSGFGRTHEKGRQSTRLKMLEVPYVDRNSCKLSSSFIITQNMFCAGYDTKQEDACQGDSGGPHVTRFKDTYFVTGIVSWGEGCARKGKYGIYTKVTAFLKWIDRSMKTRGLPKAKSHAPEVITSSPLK
T1 sequence (P00742 41-179 partner limits assumed): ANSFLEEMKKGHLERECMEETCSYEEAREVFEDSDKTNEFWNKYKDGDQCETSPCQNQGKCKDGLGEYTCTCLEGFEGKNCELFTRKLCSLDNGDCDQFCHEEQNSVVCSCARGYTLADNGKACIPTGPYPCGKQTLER
Method: (§1) To determine cross-reactivity an assay was performed using a range of coagulation enzymes at representative concentrations in human plasma. […] For tissue-type plasminogen activator (tPA) this is the conventional concentration for facilitation of fibrinolysis. A concentration of 80 nm FXa yielded a signal of 1.000.000 RLU.

[2] = target: tissue-type plasminogen activator (tPA) (Homo sapiens, UniProt P00750); assay: Cross reactivity assay, tPA; conditions: 193 IU/mL tPA
Chain of tissue-type plasminogen activator (tPA) (P00750 36-562): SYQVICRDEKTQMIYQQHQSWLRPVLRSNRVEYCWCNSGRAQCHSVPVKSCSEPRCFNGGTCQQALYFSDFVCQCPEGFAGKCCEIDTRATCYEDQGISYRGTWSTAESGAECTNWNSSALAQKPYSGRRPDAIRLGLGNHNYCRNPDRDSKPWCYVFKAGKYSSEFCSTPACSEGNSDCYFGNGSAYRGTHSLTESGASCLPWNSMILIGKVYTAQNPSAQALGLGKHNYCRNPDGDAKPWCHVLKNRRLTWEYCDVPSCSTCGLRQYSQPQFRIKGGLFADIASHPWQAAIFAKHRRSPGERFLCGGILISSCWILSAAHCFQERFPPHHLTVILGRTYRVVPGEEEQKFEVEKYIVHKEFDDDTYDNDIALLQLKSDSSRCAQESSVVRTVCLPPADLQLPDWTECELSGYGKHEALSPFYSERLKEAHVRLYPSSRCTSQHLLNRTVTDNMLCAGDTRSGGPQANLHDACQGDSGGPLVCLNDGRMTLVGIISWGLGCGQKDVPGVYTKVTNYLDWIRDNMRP
Method: as §1

thrombin = target: T2, thrombin (Homo sapiens, UniProt P00734); assay: Cross reactivity assay, thrombin; conditions: 52 nM thrombin
T2 construct: FXa acts by cleaving prothrombin, yielding active thrombin
Method: as §1

FXlla = target: T3, FXlla (Homo sapiens, UniProt P00748); assay: Cross reactivity assay, FXIIa; conditions: 145 nM FXlla
T3 construct: initiated by addition of active coagulation factors such as FXlla, FXla, or FIXa
T3 sequence (P00748 373-615 limits assumed): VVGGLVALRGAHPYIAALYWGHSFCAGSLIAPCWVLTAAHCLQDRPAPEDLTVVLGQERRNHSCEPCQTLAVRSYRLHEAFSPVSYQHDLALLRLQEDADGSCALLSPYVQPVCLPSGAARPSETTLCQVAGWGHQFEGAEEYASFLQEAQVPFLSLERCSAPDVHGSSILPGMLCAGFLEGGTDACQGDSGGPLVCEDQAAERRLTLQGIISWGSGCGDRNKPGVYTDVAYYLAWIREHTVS
Method: as §1

plasmin = plasmin (Homo sapiens, UniProt P00747); assay: Cross reactivity assay, plasmin; conditions: 8 nM plasmin
Chain of plasmin (P00747 581-810 limits assumed): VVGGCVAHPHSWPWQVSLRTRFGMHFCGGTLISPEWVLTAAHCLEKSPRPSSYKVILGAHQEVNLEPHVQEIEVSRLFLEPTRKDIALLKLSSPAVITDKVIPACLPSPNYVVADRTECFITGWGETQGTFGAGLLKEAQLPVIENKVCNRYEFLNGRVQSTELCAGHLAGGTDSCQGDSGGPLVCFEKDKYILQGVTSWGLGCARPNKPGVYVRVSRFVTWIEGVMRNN
Chain of plasmin (P00747 97-580 partner limits assumed): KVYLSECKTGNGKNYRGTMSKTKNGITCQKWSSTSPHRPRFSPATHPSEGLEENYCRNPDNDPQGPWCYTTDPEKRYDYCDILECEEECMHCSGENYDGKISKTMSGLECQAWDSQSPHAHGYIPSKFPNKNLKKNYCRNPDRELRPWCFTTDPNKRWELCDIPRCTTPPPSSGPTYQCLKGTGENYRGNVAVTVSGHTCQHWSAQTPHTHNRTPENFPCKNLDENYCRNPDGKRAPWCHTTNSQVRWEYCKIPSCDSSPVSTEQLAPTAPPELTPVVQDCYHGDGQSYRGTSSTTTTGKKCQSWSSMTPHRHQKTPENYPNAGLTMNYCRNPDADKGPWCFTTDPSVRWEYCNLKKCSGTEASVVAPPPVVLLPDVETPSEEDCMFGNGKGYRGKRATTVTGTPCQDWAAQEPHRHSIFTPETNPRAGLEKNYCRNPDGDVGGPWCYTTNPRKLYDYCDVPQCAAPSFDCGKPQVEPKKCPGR
Method: as §1

FXa [3] = target: T1, FXa; assay: Michaelis-Menten kinetics of substrate with FXa (luciferase luminescence); conditions: FXa concentration 1.6 nM
Method: Michaelis-Menten kinetics were determined for the enzyme FXa and its substrate MePEG2-IEGR (the TFA salt was used in these examples). The following composition was prepared in a microvial on ice:
160 μL Tris buffered saline (TBS) 50 mM Tris-HCI, 150 mM NaCI (pH 7.4)
4 μL ATP (final concentration 333 μM)
4 μL MgC2 (final concentration 8.3 mM)
12 μL Luciferase (final concentration 0.9 mg/ml)
Substrate compositions 2a-g:
Microvials were prepared with 30 μL substrate concentrations leading to final concentrations of 2000, 1333, 1000, 666, 333, 167 and 66 μM.
FXa (Coachrom, 16 nM) composition was prepared in a microvial on ice
Subsequently, the following compositions were added together in a white 384-well plate:
Subsequently the well plate was placed in a 37 ° C. thermostated Flexstation 3 (Molecular Devices). Luminescence emission wavelength was with an integration time of 1500 ms, measured for 1s every 30 s during 30 min.

CC[C@H](C)[C@H](NC(=O)COCCOCCOC)C(=O)N[C@@H](CCC(=O)O)C(=O)NCC(=O)N[C@@H](CCCNC(=N)N)C(=O)Nc1ccc2nc(C3=N[C@@H](C(=O)O)CS3)sc2c1 [MePEG2-IEGR] ({Decanoyl(3,6,9-trioxa)}-IEGR-X1)
cross-reactivity with serine proteases other than FXa (FXa [1]): minimal cross-reactivity
luminescent signal [2]: ~6.000 RLU
luminescent signal (thrombin): ~30.000 RLU
luminescent signal (FXlla): ~500 RLU
luminescent signal (plasmin): ~8.000 RLU
Kcat=Vmax/[FXa] (FXa [3]): 1.05e+14 s⁻¹
Km (FXa [3]; 37 °C): 619 µM
Vmax (FXa [3]; 37 °C, luciferase/ATP/Mg readout): 468000 RLU
